Test results reported in patent publication US20030109468A1, “Novel compounds that enhance dimerization of the subunits of HIV-1 reverse transcriptase having mutations associated with resistance to nonnucleoside reverse transcriptase inhibitors” (priority 2001, published 2003).
“Also recorded” adds a separate entry of the source. Where two headings read alike, the source gives them in different places.

Legend:
[1] = target: T1, lexA87-66 and Gal4AD-51 (p66 and p51 subunits of the HIV-1 RT) (Human immunodeficiency virus type 1 group M subtype B, UniProt P12497); format: cell-based
T1 construct: p66 corresponds to codons 1-560 and p51 corresponds to codons 1-440 in the RT gene; expressed in transfected cells; host or cells: Saccharomyces cerevisiae CTY10-5d
Description: Transformation of yeast and the qualitative β-galactosidase (β-gal) colony lift assay were as published (19). Quantification of protein-protein interactions was determined using the β-gal liquid assay performed on permeabilized yeast grown from three independent transformants using orthonitrophenyl-β-D-galactopyranoside as substrate (19).
(§1) CTY10-5d transformed constructs expressing p66 bait and p51 prey fusions were grown overnight to stationary phase in synthetic complete medium without histidine and leucine and containing 2% glucose (SC-His-Leu). […] Yeast were grown with aeration at 30° C. to OD600=0.5. The equivalent of 1 OD600 unit was pelleted for each treatment and subjected to a quantitative _-gal liquid assay.
To test the effects of NNRTIs on the association of the RT polypeptides we used a yeast genetic assay that measures RT heterodimerization (22). In this assay yeast expressing the p66 subunit of the HIV-1 RT fused to the C-terminus of lexa 87 (lexA87-66) and the p51 subunit fused to the Gal4AD (Gal4AD-51) constitutively interact, resulting in the activation of the expression from an integrated Lac Z reporter gene. To test for the effects of the NNRTIs on this interaction, 10 drugs representing 7 different NNRTI classes were added to the culture medium during growth of the yeast and β-gal levels were determined.

p66-His and GST-p51 = target: T2, p66-His and GST-p51 (Human immunodeficiency virus type 1 group M subtype B, UniProt P04585); format: binding, HIV-1
T2 construct: p66 corresponds to codons 1-560 and p51 corresponds to codons 1-440 in the RT gene; made in house; host or cells: E. coli M15 (p66-His) and BL21 (GST-p51), unpurified lysates
Description: Plasmids expressing wild-type and p66 mutants with a histidine tag at the C-terminus (p66-His) were constructed by cloning the p66 coding region into the SphI -BglII site of pQE-70 (Qiagen, Chatsworth, Calif.). […] Glutathione S-transferase tagged p51 (GST-p51) was prepared by subcloning the BamHI-SalI fragment from p51HXGADNOT into pGEX5X-3 (Amersham Pharmacia). Cells were induced and then lysed by the addition of 1 mg/ml of lysozyme to 1 ml of lysis buffer [50 mM sodium phosphate buffer (pH 7.8), 500 mM NaCl, 0.5% Nonidet P-40, 5 mM DTT, and 1 μg/ml each of pepstatin A, aprotinin and leupeptin] and clarified. Lysates were combined and incubated for 16 hrs at 4° C. The heterodimer was captured on Glutathione Sepharose 4B beads and unbound subunits were removed by washing with lysis buffer. Heterodimer bound to beads were resolved by SDS/PAGE. For quantification of RT activity, dimers were eluted from beads with 10 mM reduced glutathione in 50 mM Tris (pH 8.0). Samples were assayed for DNA polymerase activity on homopolymeric template-primers for various times, and the activity was determined from the initial slope of the linear phase of the time course.

p66/p51 heterodimer = target: T3, p66/p51 heterodimer (Human immunodeficiency virus type 1 group M subtype B, UniProt P12497); conditions: cited from earlier work
T3 construct: The HIV-1 RT is an asymmetric dimer consisting of p66 and p51 polypeptides

HIV-1 = conditions: cited from earlier work
HIV-1 RT = HIV-1 RT (Human immunodeficiency virus type 1 group M subtype B, UniProt P12497); format: biochemical; conditions: exogenous RT assay, results not shown
[2] = target: T4, HIV-1 RT p66 bait and p51 prey fusions with the L234A change (Human immunodeficiency virus type 1 group M subtype B, UniProt P04585, L821A); format: cell-based; conditions: L234A in one or both subunits
T4 construct: p66 corresponds to codons 1-560 and p51 corresponds to codons 1-440 in the RT gene; expressed in transfected cells; host or cells: Saccharomyces cerevisiae CTY10-5d
Description: as §1

[3] = target: T5, HIV-1 RT p66 bait and p51 prey fusions with the W401A change (Human immunodeficiency virus type 1 group M subtype B, UniProt P12497, W988A); format: cell-based; conditions: W401A in one or both subunits
T5 construct: p66 corresponds to codons 1-560 and p51 corresponds to codons 1-440 in the RT gene; expressed in transfected cells; host or cells: Saccharomyces cerevisiae CTY10-5d
Description: as §1

[4] = target: T6, lexA87-66W401A and Gal4AD-HA-51W401A (Human immunodeficiency virus type 1 group M subtype B, UniProt P12497, W988A); test: Coimmunoprecipitation of p66 and p51 in yeast lysates, W401A mutant; format: cell-based, HIV-1
T6 construct: p66 corresponds to codons 1-560 and p51 corresponds to codons 1-440 in the RT gene; expressed in transfected cells; host or cells: Saccharomyces cerevisiae CTY10-5d
Description: […]; Preparation of protein extracts and immunoprecipitation were as previously described (30) except for the use of anti-HA.11 monoclonal antibodies (clone 16B12; Covance, Princeton, N.J.) and Protein G-PLUS agarose beads (Santa Cruz Biotechnology; Santa Cruz, Calif.). Samples were resolved by SDS-PAGE. The lexA87-66 fusion protein was probed using monoclonal antibodies 7E5 which specifically detects p66 (31).
To directly test for induced heterodimerization by NNRTIs we subjected lysates from yeast expressing dimerization defective mutants to coimmunoprecipitation. […]. Hemagglutinin (HA) antibodies were used to immunoprecipitate the p51 prey and the presence of any bound p66 bait was then detected using anti-p66 specific antibodies. For coimmunoprecipitation of the p66 bait fusions, samples were divided into two with one part processed without added NNRTI while the other was maintained in drug at the same concentration used during growth of yeast. […] […].

[5] = target: T7, lexA87-66L234A and Gal4AD-HA-51L234A (Human immunodeficiency virus type 1 group M subtype B, UniProt P04585, L821A); format: cell-based, HIV-1; conditions: yeast grown with efavirenz 1.6 μM or UC781 16 μM, compared to no drug
T7 construct: p66 corresponds to codons 1-560 and p51 corresponds to codons 1-440 in the RT gene; expressed in transfected cells; host or cells: Saccharomyces cerevisiae CTY10-5d
Description: Samples were resolved by SDS-PAGE.
Hemagglutinin (HA) antibodies were used to immunoprecipitate the p51 prey and the presence of any bound p66 bait was then detected using anti-p66 specific antibodies. For coimmunoprecipitation of the p66 bait fusions, samples were divided into two with one part processed without added NNRTI while the other was maintained in drug at the same concentration used during growth of yeast.

RT heterodimer = target: T8, RT heterodimer (Human immunodeficiency virus type 1 group M subtype B, UniProt P12497); conditions: cited from earlier work
T8 construct: The HIV-1 RT is an asymmetric dimer consisting of p66 and p51 polypeptides

[6] = target: lexA87-66Y181C and wild type Gal4AD-51 (Human immunodeficiency virus type 1 group M subtype B, UniProt P12497, Y768C); format: cell-based, HIV-1; conditions: yeast grown in the presence of drug
Description: as §1

lexA87 and Gal4AD = test: Y2H specificity control, empty vectors pSH21 and pGADNOT; format: cell-based; conditions: serial dilutions, even in the presence of 15 μM of drug
Description: (§2) The specificity of the β-gal enhancement by NNRTIs was investigated. […].

[7] = tested on: moloney murine leukemia virus reverse transcriptase with elongation factor release factor 1 and other unrelated pairs; test: Y2H specificity control, unrelated protein-protein interaction pairs; format: cell-based
Description: as §2

[8] = target: p66W401A-His and GST-p51W401A (Human immunodeficiency virus type 1 group M subtype B, UniProt P12497, W988A); test: In vitro heterodimerization in bacterial lysates, W401A mutant
Description: The heterodimerization of bacterially expressed wild-type p66-His and GST-p51 (or mutants) was assessed in bacterial lysates as described previously (22). […] Lysates were washed 4 times with lysis buffer using a centricon-YM-50 filter device (Millipore Corporation, Bedford, Mass.) to remove unbound drug. 5 μg of the corresponding RT subunit was applied to the washed lysates (in 500 μl) and incubated for 1.5 hr at 40C. Heterodimers were captured onto beads (22), resolved by SDS/PAGE and detected using RT antibodies (monoclonal antibody 5B2) (31).

[9] = target: HIV-1 RT with Y181C mutation in the p66 subunit (Human immunodeficiency virus type 1 group M subtype B, UniProt P12497, Y768C); conditions: cited from earlier work
[10] = yeast expressing lexA87-66 and Gal4AD-51 grown with drug
[11] = bacterial lysates, overnight at 4° C.

Molecule: 2′,5′-bis-O-(tert-butylidimethylsilyl) -3′-spiro-5″-4″-amino-1″,2″-oxothiole-2″,2″-dioxide)]-b-D- pentofuranosyl [TSAO]
- inhibition of β-gal activity in the Y2H system ([1]; preliminary tests, data not shown, uptake by yeast not ruled in): no inhibition of β-gal activity
- effect on heterodimerization in in vitro binding assays (p66-His and GST-p51; preliminary tests, data not shown): reduce heterodimerization
- destabilization of the p66/p51 heterodimer (p66/p51 heterodimer): destabilization of the p66/p51 heterodimer; also recorded: destabilize the p66/p51 heterodimer

Molecule: COc1ccc2c(c1)N(C(=O)OC(C)C)[C@@H](CSC)C(=S)N2 [HBY 097, (S)-4-isopropoxycarbonyl-6-methoxy-3-(methylthiomethyl)-3,4-dihydroquinoxaline-2(1H)-thione]
- enhancement of β-gal activity, in words / relative potency [1, 10]: most potent
- inhibition of HIV-1 replication in vitro (HIV-1): extremely potent inhibitors

Molecule: CCn1c(=O)c(C)cn([C@@H]2O[C@H](CO[Si](C)(C)C(C)(C)C)C3(OS(=O)(=O)C=C3N)[C@H]2O[Si](C)(C)C(C)(C)C)c1=O (stereo partly drawn) [TSAOe^3T]
- destabilization of the p66/p51 heterodimer (p66/p51 heterodimer): more modest destabilization only detectable in the presence of denaturants

Molecule: Cc1occc1C(=S)Nc1ccc(Cl)c(/C=N/OC(C)(C)C)c1 [UC10]
- enhancement of dimerization of GST-p51 and p66-His in vitro, in words (p66-His and GST-p51; [11]): poor dimerization inducers

Molecule: CC(C)OC(=O)c1cc(NC(=S)OC(C)C)ccc1Cl [UC38]
- concentration of drug that mediates a 5-fold increase in β-gal activity, rank ([1]; Y2H assay, results not shown): least active
- RT inhibitory activity (50% inhibitory concentration), rank (HIV-1 RT): least active

Molecule: CC(C)=CCOc1cc(NC(=S)c2ccoc2C)ccc1Cl [UC781, N-[4-chloro-3-(3-methyl-2-butenyloxy)phenyl]-2-methyl-3-furancarbothioamide]
- enhancement of β-gal activity, in words / relative potency [1, 10]: second most potent drug
- enhancement of β-gal activity, L234A mutant, in words [2]: no enhancement
- enhancement of β-gal activity, W401A mutant, in words [3]: could also enhance the β-gal activity
- p66 bait coimmunoprecipitated with p51 prey, W401A ([4]; yeast grown with efavirenz 1.6 μM or UC781 16 μM, compared to no drug): heterodimer formation
- p66 bait coimmunoprecipitated with p51 prey, L234A [5]: not for the L234A mutant
- enhancement of dimerization of GST-p51 and p66-His in vitro, in words (p66-His and GST-p51; [11]): poor dimerization inducers
- inhibition of HIV-1 replication in vitro (HIV-1): extremely potent inhibitors
- binding to the RT heterodimer (RT heterodimer): bind very tightly
- dissociation rates (Koff) (RT heterodimer): very slow dissociation rates

Molecule: CC(C)Nc1cccnc1N1CCN(C(=O)c2cc3cc(NS(C)(=O)=O)ccc3[nH]2)CC1 [delavirdine, piperazine, 1-[3-[(1-methyl-ethyl)amino]-2-pyridinyl]-4-[[5-[(methysulfonyl)amino]-1H-indol-2-yl]carbonyl]-, monomethanesulfonate]
- enhancement of β-gal activity, in words / relative potency [1]: devoid of P-gal enhancing activity
- enhancement of dimerization of GST-p51 and p66-His in vitro, in words (p66-His and GST-p51): inactive in vitro

Molecule: O=C1Nc2ccc(Cl)cc2[C@@](C#CC2CC2)(C(F)(F)F)O1 [efavirenz, (S)6-chloro-4(cyclopropylethynyl)-1,4-dihydro-4-(trifluoromethyl)-2H-3,1-benzoxazin-2-one]
- β-gal enhancement with Y181C in the p66 bait [6]: significant level of β-gal enhancement was still retained
- enhancement of β-gal activity, W401A mutant, in words [3]: dramatic increase in β-gal activity
- increase in β-gal activity, empty vectors (lexA87 and Gal4AD): no increase in β-gal activity
- effect on β-gal activity of unrelated protein-protein interaction pairs [7]: no enhancement or inhibition of β-gal activity
- heterodimer in lysates of yeast grown without drug, drug added during coimmunoprecipitation, W401A [4]: significantly more heterodimer present
- p66 bait coimmunoprecipitated with p51 prey, W401A [4]: clear increase
- binding to the RT heterodimer (RT heterodimer): bind very tightly
- molar excess of drug giving a significant increase in dimer formation, W401A [8]: 10 fold molar excess

Molecule: Cc1ccnc2c1NC(=O)c1cccnc1N2C1CC1 [nevirapine, 11-cyclopropyl-5,11,-dihydro-4-methyl-6H-dipyrido[3,2-b:2′3′-][1,4] diazepin-6-one]
- β-gal enhancement with Y181C in the p66 bait [6]: totally negated the enhancement effect
- increase in resistance conferred by Y181C [9]: > 100 fold
